Test system: Human dermal fibroblasts
Test: Hyaluronic Acid (HA) Secretion (Assay 4, ELISA)
Assay type: cell-based
Conditions: 20 ng/ml (positive control), 48 hours post-treatment
Protocol: Human dermal fibroblasts were maintained in flask in growth medium consisting of DMEM plus 10% fetal bovine serum, 50 units/ml penicillin and 50 μg/ml streptomycin. Cells were seeded at 10,000 cells per well in a 96 well plate. After 24 hours incubation, cells were treated with test articles dissolved in DMSO or DMSO without extracts (as control) prepared in DMEM+2% FBS. Culture media was collected at 48 hours post-treatment, and measured for HA (Hyaluronic acid) secretion using Hyaluronan ELISA kit (Echelon, cat. #K-1200) following the manufacturer protocol. To assess activity, the colorimetric chance was measured at 405 nm and the results expressed as a fold change over untreated controls.

## TGF-b
  HA secretion Fold Change: 2.54 fold
